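Exposure lasted 48 hours, with cells grown in 96-well plates and compounds tested at five concentrations. The concentration for full growth arrest is given as TGI.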
How the values were obtained:
Test in all cases: NCI tumour cell line growth inhibition, 48 h
PC-3 prostate = system: PC-3 prostate
SK-MEL-28 melanoma = system: SK-MEL-28 melanoma
IGROV1 ovarian = system: IGROV1 ovarian
KM12 colon = system: KM12 colon
HCT-15 colon = system: HCT-15 colon
NCI-H226 lung = system: NCI-H226 lung
NCI/ADR-RES ovarian = system: NCI/ADR-RES ovarian
HT29 colon = system: HT29 colon
CAKI-1 renal = system: CAKI-1 renal
MDA-N = system: MDA-N
A549 NSCLC = system: A549 NSCLC
HOP-62 NSCLC = system: HOP-62 NSCLC
EKVX NSCLC = system: EKVX NSCLC
UO-31 renal = system: UO-31 renal
UACC-62 melanoma = system: UACC-62 melanoma
SNB-75 CNS = system: SNB-75 CNS
HOP-92 NSCLC = system: HOP-92 NSCLC
RXF 393 renal = system: RXF 393 renal
786-0 renal = system: 786-0 renal
K-562 leukemia = system: K-562 leukemia
TK-10 renal = system: TK-10 renal
MALME-3M melanoma = system: MALME-3M melanoma
OVCAR-5 ovarian = system: OVCAR-5 ovarian
SK-MEL-2 melanoma = system: SK-MEL-2 melanoma
SR leukemia = system: SR leukemia
SN12C renal = system: SN12C renal
HCT-116 colon = system: HCT-116 colon
SNB-19 CNS = system: SNB-19 CNS
CCRF-CEM leukemia = system: CCRF-CEM leukemia
SK-OV-3 ovarian = system: SK-OV-3 ovarian
BT-549 breast = system: BT-549 breast
MOLT-4 leukemia = system: MOLT-4 leukemia
U251 CNS = system: U251 CNS
MCF7 breast = system: MCF7 breast
NCI-H460 lung = system: NCI-H460 lung
ACHN renal = system: ACHN renal
NCI-H23 lung = system: NCI-H23 lung
OVCAR-8 ovarian = system: OVCAR-8 ovarian
HCC-2998 colon = system: HCC-2998 colon
HL-60(TB) leukemia = system: HL-60(TB) leukemia
SK-MEL-5 melanoma = system: SK-MEL-5 melanoma
M14 melanoma = system: M14 melanoma
OVCAR-3 ovarian = system: OVCAR-3 ovarian
MDA-MB-231 breast = system: MDA-MB-231 breast
SF-539 CNS = system: SF-539 CNS
HS 578T breast = system: HS 578T breast
LOX IMVI melanoma = system: LOX IMVI melanoma
COLO 205 colon = system: COLO 205 colon
SF-295 CNS = system: SF-295 CNS
OVCAR-4 ovarian = system: OVCAR-4 ovarian
A498 renal = system: A498 renal
SW-620 colon = system: SW-620 colon
UACC-257 melanoma = system: UACC-257 melanoma
T-47D breast = system: T-47D breast
MDA-MB-435 = system: MDA-MB-435
DU-145 prostate = system: DU-145 prostate
NCI-H522 lung = system: NCI-H522 lung
RPMI-8226 leukemia = system: RPMI-8226 leukemia
SF-268 CNS = system: SF-268 CNS

Measured: TGI

CC1N(O)C(c2ccccc2)C(c2ccccc2)=[N+]1[O-] (stereo not drawn)
not listed: T-47D breast | MDA-MB-435 | DU-145 prostate | NCI-H522 lung | RPMI-8226 leukemia | SF-268 CNS
> 100 µM: all other assays above

C[N+]1(C)C2CCC1CC(OC(=O)C(CO)c1ccccc1)C2 (stereo not drawn)
not listed: HOP-92 NSCLC | NCI-H460 lung | HCC-2998 colon | HL-60(TB) leukemia
> 100 µM: all other assays above

From PubChem BioAssay (NCI)
